Legend:
[1] = test system: HdhQ111 / HdhQ7 mouse striatal cells; assay: VCP mitochondrial level, mouse striatal cells (western blot); assay type: cell-based
Description: Immortalized striatal cell lines HdhQ111 mutant and HdhQ7 wt cells were obtained from the CHDI Foundation. Cells were cultured in DMEM supplemented with 10% FBS, 100 μg/ml penicillin, 100 μg ml^−1 streptomycin, and 400 μg ml^−1 G418. Cells were grown at 33 °C in a 5% CO2 incubator. Cells within 14 passages were used in all experiments.
For silencing Htt and VCP in HD striatal cells, control siRNA, mouse Htt and mouse VCP siRNA were purchased from Thermo Fisher Scientific. HdhQ7 and HdhQ111 cells were transfected either with control siRNA, or Htt or VCP siRNA using TransIT-TKO Transfection Reagent (Mirus Bio, LLC), according to the manufacturer's instructions. The sequences for the siRNAs used in this study are as follows: mouse Htt, 5′-[…]-3′; Mouse VCP, 5′-GAGAGCAACCUUCGUAAG-3′; control non-targeting siRNA, 5′-TTCTCCGAACGTGTCACGT-3′.
(§1) Cells were washed with cold PBS and incubated on ice for 30 min in a lysis buffer (250 mM sucrose, 20 mM HEPES-NaOH, pH 7.5, 10 mM KCl, 1.5 mM MgCl2, 1 mM EDTA, protease inhibitor cocktail and phosphatase inhibitor cocktail). Mouse brains were minced and homogenized in the lysis buffer and then placed on ice for 30 min. Collected cells or tissue were disrupted 20 times by repeated aspiration through a 25-gauge needle, followed by a 30-gauge needle. The homogenates were spun at 800 g for 10 min at 4 °C, and the resulting supernatants were spun at 10,000 g for 20 min at 4 °C. The pellets were washed with lysis buffer and spun at 10,000 g again for 20 min at 4 °C. The final pellets were suspended in lysis buffer containing 1% Triton X-100 and were mitochondrial-rich lysate fractions. The supernatant was centrifuged at 100,000 g, 4 °C, for 1 h, the pellets were suspended in lysis buffer containing 1% Triton X-100 as ER fractions. The final supernatant was cytosolic fractions. The mitochondrial proteins VDAC, the ER protein WFS1 and the cytosolic protein Enolase were used as loading controls for mitochondrial, ER and cytosolic fractions, respectively.
(§2) Protein concentrations were determined by Bradford assay. […]

[2] = test system: YAC128 mice; assay: VCP mitochondrial level, YAC128 mouse striatum; assay type: in vivo; conditions: YAC128, 3 mg kg^−1 per day from 3 to 6 months versus TAT, n=6
Description: as §1
YAC128 (FVB-Tg(YAC128)53Hay/J, JAX stock number: 004938) breeders (FVB/N genetic background) were purchased from Jackson Laboratories. […]
as §2

[3] = test system: YAC128 mice; assay: Rotarod performance; assay type: in vivo, mouse; conditions: YAC128, 3 mg/kg/day from 3 months; from 6 to 12 months of age, n=15–20
Excerpt: YAC128 (FVB-Tg(YAC128)53Hay/J, JAX stock number: 004938) breeders (FVB/N genetic background) were purchased from Jackson Laboratories. The YAC128 mice contain a full-length human huntingtin gene modified with a 128 CAG repeat expansion in exon 1. The mice were mated, bred and genotyped in the animal facility of Case Western Reserve University. Male mice at the ages of 2, 3, 6, 9 and 12 months were used in the study.
YAC128 mice (Tg) and their age-matched wt littermates were implanted with an osmotic pump containing TAT control peptide or HV-3 peptide (3 mg/kg/day, each) starting from the age of 3 months. The pump was replaced once every month. By the age of 12 months, the treatments were terminated and the mouse samples were harvested for analysis.
The motor coordination and balance of YAC128 mice were tested on an accelerating Rotarod (IITC Life Sciences, Serials 8) at the ages of 2, 3, 6, 9 and 12 months. Training and baseline testing for motor function tasks were conducted at 2 months of age. For training, mice were given three 120-s trials per day at a fixed-speed of 15 r.p.m. for three consecutive days. During the testing phase, the Rotarod accelerated from 5 to 40 r.p.m. over 3 min; the maximum score was 300 s. Rotarod scores were the average of three trials per day (with 2 h rest between trials) for 3 consecutive days.

[4] = test system: C57Black mice; assay: Hematology of naive mice; assay type: in vivo, mouse; conditions: 3 mg/kg/day, 4 weeks
Description: Supplementary Figure 8 : Toxicity analysis of HV -3in naïve mice .
We performed a toxicity analysis of HV-3 in mice. Six -week-old C57Black mice were treated with saline or peptide HV-3 at 3mg/kg/day by Alzet pump implantation. After 4- week treatment, the plasma, blood and whole mouse bodies of mice were collected. Examination on blood chemistry (Supplementary Table 1), hematology (Supplementary Table 2) and general necropsy of mice were performed at the Animal Diagnostic Laboratory at Stanford University. The experimenter who conducted the analysis was blind to the treatment groups. Automated hematology was performed on the Sysmex XT-2000iV analyzer system. Blood smears were made for all full CBC samples and reviewed by a medical technologist. Manual differentials were performed as indicated by species and automated analysis. Chemistry analysis was performed on the Siemens Dimension Xpand analyzer. […]
Student’s t test. Four-week sustained treatment with HV-3 by pump implantation had no effects on blood chemistry (Supplementary Table 1), hematology (Supplementary Table 2), and gross necropsy of naïve mice when compared to mice treated with saline. […]
Table 2: Effects of 4-w eek treatment w ith HV-3 on hematology of naïve mice […]
Mean SD Mean SD p-value unit n

`CSCC[C@H](NC(=O)[C@@H](NC(=O)[C@H](CC(C)C)NC(=O)[C@@H](NC(=O)[C@H](Cc1c[nH]cn1)NC(=O)CCCCCNC(=O)[C@H](CCCNC(=N)N)NC(=O)[C@H](CCCNC(=N)N)NC(=O)[C@H](CCCNC(=N)N)NC(=O)[C@H](CCC(N)=O)NC(=O)[C@H](CCCNC(=N)N)NC(=O)[C@H](CCCNC(=N)N)NC(=O)[C@H](CCCCN)NC(=O)[C@H](CCCCN)NC(=O)[C@H](CCCNC(=N)N)NC(=O)CNC(=O)[C@@H](N)Cc1ccc(O)cc1)C(C)C)C(C)C)C(=O)N[C@@H](CS)C(=O)N[C@@H](C)C(=O)N[C@H](C(N)=O)[C@@H](C)O` [HV-3] was tested, and the “VCP translocation to mitochondria” value ([1]; HdhQ111 cells, HV-3 3 μM per day for 3 days versus TAT, n=3) was “abolished VCP translocation to the mitochondria”, the “VCP mitochondrial levels, wt” value ([1]; wt counterparts of the HD models) was “only minor effects” and the “VCP translocation to mitochondria in striatum” value [2] was “blocked VCP translocation to mitochondria”. The rotarod performance [3] was “improved general movement activity and rotarod performance”, the Eosinophils ([4]; mean, n = 4/group) was 37.00 and the HCT ([4]; mean, n = 4/group) was 44.60%. It also gave a Hgb ([4]; mean, n = 4/group) of 13.93 gm/dL, an IRF ([4]; mean, n = 4/group) of 53.97% and a Lymphocytes ([4]; mean, n = 4/group) of 1645.00. The MCH ([4]; mean, n = 4/group) was 14.90 pg, the MCHC ([4]; mean, n = 4/group) was 31.27 g/dL and the MCV ([4]; mean, n = 4/group) was 47.67 fL. For the same compound, the Monocytes ([4]; mean, n = 4/group) was 182.33, the Neutrophils ([4]; mean, n = 4/group) was 1525.67 and the Platelet count ([4]; mean, n = 4/group) was 1021.33 K/uL. For the same compound, the RBC ([4]; mean, n = 4/group) was 9.37 M/uL, the RDW ([4]; mean, n = 4/group) was 21.77% and the “Reticulocyte Count” value ([4]; mean, n = 4/group) was 4.30%. The WBC ([4]; mean, n = 4/group) was 3.39 K/uL and the “hematology (overall)” value ([4]; versus saline) was “no effects”.
